One data set has as its system Mia Paca 2. Kind of data set: MTT cytotoxicity assay, Mia Paca 2. It counts as cell-based. The conditions noted are these: Homo sapiens, MIA PaCa-2, 96 h, read-out: IC50 (nM) Mia Paca 2. The method, then:
(§1) The cytotoxicity potential of the compounds of the invention 16c-h was compared with the comparative compounds 16a, 16b and GWL-78 in a number of tumour cell lines and the non-cancer cell line WI38 after 96 hours exposure using the MTT (3-(4,5-Dimethylthiazol-2-yl)-2,5-diphenyltetrazolium bromide) colorimetric assay, as described below.
(§2) A panel of several types of human cancer cell lines including epidermoid (A431), lung (A549), ovarian (A2780) and breast (MCF7 and MDAMB-231), as well as the non-tumour cell line WI38, were used to determine the cytotoxicity of the compounds. The cells were grown in normal conditions at 37° C. under a 5% CO2 humidified atmosphere, either in Dulbecco's Modified Eagle Medium or Modified Eagle Medium (depending on the cell line), supplemented with 10% fetal bovine serum (Biosera, UK), 1% L-glutamine, 1% non-essential amino acids and 0.05% hydrocortisone (Gibco, Invitrogen, USA). Cells were then seeded into 96-well plates in a total volume of 160 μl, and allowed to reach a 30-40% degree of confluence before starting the experiment. The ligands were dissolved in sterilized ultrapure water at a maximum concentration of 100 μM, and serial decimal dilutions prepared. These were added to the cells in a volume of 40 μl. After 96 hours of continuous exposure to each ligand, the cytotoxicity was determined by the MTT (3-(4,5-Dimethylthiazol-2-yl)-2,5-diphenyltetrazolium bromide) (Lancaster Synthesis Ltd, UK) colorimetric assay (Skehan P, S. R., et al., Journal of the National Cancer Institute 1990, 82, 1107). Absorbance was quantified by spectrophotometry at A=570 nm (ELx808, Bio-Tek Instruments, Inc., USA). IC50 values were calculated by a dose-response analysis using the Origin 6.0™ software.
On the technique in general: Formazan colour is commonly taken as a measure of viable cells.

The subject of the next data set is primary CLL cells. Kind of data set: Annexin V/propidium iodide flow cytometry assay in primary CLL cells. It counts as cell-based. The conditions noted are these: CLL cell. The method, then: The cytotoxicity potential of the compounds of the invention 16c-h was also compared with the comparative compounds 16a, 16b and GWL-78 in a primary CLL cell lines using the Annexin V assay (van Engeland, M, et al., Cytometry 1998, 31, 1-9), as described below.
Freshly isolated peripheral blood CLL cells (1×10^8 mL^−1) were cultured in RPMI medium (Invitrogen, Paisley, U.K.) supplemented with 100 U/mL penicillin, […] streptomycin, and 10% fetal calf serum. The cells were incubated at 37° C. in a humidified 5% CO2 atmosphere in the presence of each compound. All compounds were dissolved in DMSO and were evaluated in serial dilutions against the primary CLL cells. In addition, control cultures were carried out to which no drug was added. The cytotoxic effects of the compounds were quantified using an annexin V/propidium iodide flow cytometry assay (Bender Medsystems, Vienna, Austria). All assays were performed in duplicate, and LD50 values were calculated from sigmoidal dose-response curves using the Prism 6.0 software (Graphpad Software Inc., San Diego, Calif.). The sigmoidal dose-response curves were derived by plotting log [compound concentration] against the percentage apoptosis induced by that concentration. A wide range of concentrations were used to establish the biologically active range for each individual compound.
(In general: Flow cytometry measures light scatter and fluorescence of single cells or particles in a stream.)

Another data set deals with A2780 (ovarian). Kind of data set: MTT cytotoxicity assay, A2780. The conditions noted are these: Homo sapiens, A2780, 96 h, read-out: IC50 (nM) A2780. It counts as cell-based. The method, then:
as §1, §2

Data set [1] is described as follows: MTD (maximum tolerated dose) study, intraperitoneal dosing. The data set is classed as in vivo, mouse. The method, then:
Initially a small scale study was carried out to determine the MTD (maximum tolerated dose) in Swiss-Webster mice using intraperitoneal dosing (IP). […] As 16f provided a marginally better toxicity profile in the MTD study, it was decided to carry out more extensive in vivo tumour xenograft studies on this molecule.

A further data set deals with WI38. As to the kind of experiment: MTT cytotoxicity assay, non-tumour cell line WI38. It counts as cell-based. The conditions noted are these: Homo sapiens, WI-38, 96 h, read-out: IC50 (nM) WI38. As to the method:
as §1, §2

In a further data set the test system is phosphorylated IκBα. As to the kind of experiment: Western Blotting in CLL cells, surrogate for NF-κB activity. It counts as cell-based. The conditions noted are these: 24 hours incubation, concentrations down to 0.1 nM. The text has this:
(§3) Based on the hypothesis that 16f may down-regulate the expression of NF-κB-dependent genes (e.g., IκB, BCL2, BCLXL) by binding to the cognate DNA sequence of NF-κB, thereby blocking interaction of the transcription factor protein and inhibiting transcription of a number of genes, it was decided to explore this possibility in CLL cells in which NF-κB signaling is known to be active and closely correlates with the initiation and progression of malignancy.
(In general: Immunoblotting shows a protein as a band on a membrane.)

The subject of a further data set is phosphorylated-p65. The description is as above. The data set is classed as cell-based. The conditions noted are these: 24 hours incubation.
Description: as §3

The subject of data set [2] is Mia Paca 2 pancreatic cancer xenograft. As to the kind of experiment: Mia Paca 2 pancreatic cancer xenograft in mouse model. The data set is classed as in vivo. As to the method:
(§4) An in vivo study of 16f was carried out in a pancreatic cancer xenograft mouse model, in a similar manner to the above. The drug (16f) treated group was administered an IV dose of 300 μg/Kg/day for 5 consecutive days followed by 2 drug free days, and the cycle was continued for 3 weeks.

In a further data set the test system is OCT-4. Kind of data set: Transcription Factor Activation Profiling Array Assay (Signosis), HeLa. It counts as cell-based. The conditions noted are these: 10 nM, 4 hours. As to the method:
(§5) 16f was evaluated in a commercial Transcription Factor Activation Profiling Array Assay™ (Signosis) using the HeLa cell line. In this assay the activities of 48 transcription factors could be monitored simultaneously using a collection of biotin-labeled DNA probes based on the consensus sequences of individual transcription factor DNA-binding sites. […] The activity of NF-κB was reduced by almost 50%.

In another data set the test system is SMAD. The data set is described as above. It counts as cell-based. The conditions noted are these: 10 nM, 4 hours. The method, then: as §5
For the next data set, the system named is NF-κB. The description is as above. It counts as cell-based. The conditions noted are these: 10 nM, 4 hours. The method, then: as §5
In the next data set the test system is NFAT. The description is as above. It counts as cell-based. The conditions noted are these: 10 nM, 4 hours. As to the method:
as §5

The subject of a further data set is EGR. The data set is described as above. The data set is classed as cell-based. The conditions noted are these: 10 nM, 4 hours. The method, then: as §5
In another data set the test system is NFκB. Kind of data set: Immunohistochemical staining of xenograft tumour cross-sections. The conditions noted are these: treated vs controls. It counts as in vivo, mouse. The method, then: as §4
The test system of the next data set is A549 (lung). As to the kind of experiment: MTT cytotoxicity assay, A549. The conditions noted are these: Homo sapiens, A549, 96 h, read-out: IC50 (nM) A549. It counts as cell-based. The method, then: as §1, §2
The subject of the next data set is A431 (epidermoid). Kind of data set: MTT cytotoxicity assay, A431. It counts as cell-based. The conditions noted are these: Homo sapiens, A-431, 96 h, read-out: IC50 (nM) A431. The method, then: as §1, §2
The subject of data set [3] is MDA MB 231 breast cancer xenograft. As to the kind of experiment: ER-negative MDA MB 231 breast cancer xenograft study. It counts as in vivo, mouse. The conditions noted are these: for in vivo antitumour activity compared to control mice: female MF1 nude mice. The method, then: In vivo studies of the activity of 16f were carried out in an ER-negative MDA MB 231 breast cancer xenograft in a mouse model. The human breast cancer cell line MDA-MB-231 (5×10^8 cells) was employed to establish xenografts in the flanks of female MF1 nude mice, 2-3 months old and weighing 20-25 g. Subsequent passaging was by the subcutaneous implantation of small tumour pieces (approx 1 mm^3) into the flank. When the tumours reached approx. 0.06 cm^3 (three weeks post implantation) they were divided into 3 groups of 4 mice. The drug treated groups were administered with an IV dose (in DMSO) of either 250 μg/Kg/day or 300 μg/Kg/day for 5 consecutive days followed by two drug free days for 3 weeks, followed by 2 consecutive days in week 4 at which point the dosage was stopped.

From patent US9376440B2, “Pyrrolobenzodiazepines as antiproliferative agents” (MEDIMMUNE LIMITED, priority 2012, dated 2016) come the findings set out here.

Structures are written as SMILES.

As usually defined, the IC50 is the concentration that inhibits the measured activity by half. For `COC(=O)c1cc(-c2ccc(NC(=O)c3nc(NC(=O)CCCOc4cc5c(cc4OC)C(=O)N4CCC[C@H]4C=N5)cn3C)cc2)cn1C` [Compound 16f, (S)-methyl 4-(4-(4-(4-(7-methoxy-5-oxo-2,3,5,11a-tetrahydro-1H-pyrrolo[2,1-c][1,4]benzodiazepine-8-yloxy)butanamido)-1-methyl-1H-imidazole-2-carboxamido)phenyl)-1-methyl-1H-pyrrole-2-carboxylate], the IC50 with Mia Paca 2 turned out to be 0.0021 nM; in the data set with primary CLL cells, 0.17 nM; in the data set with A2780 (ovarian), 0.021 nM; in the data set on WI38 it was 129 nM; in the data set with A549 (lung) it was 0.034 nM; with A431 (epidermoid), 0.018 nM. Further, the weight loss result in data set [1] (Swiss-Webster mice, IP, 400 μg/Kg/day) is “insignificant weight loss”. Also, the “weight loss or other signs of toxicity” value in [1] (repeat MTD experiment, 350 μg/Kg/day) is listed as “did not show any weight loss or other signs of toxicity”. The “suppression of phosphorylated IκBα” value with phosphorylated IκBα is recorded as “significant suppression”. The “effect on phosphorylated-p65” value in the data set with phosphorylated-p65 is “only a marginal effect”. Further, the “tumour growth after last administered dose” value in data set [2] (300 μg/Kg, up to 21 days after last dose) is “no growth was observed”. For the same compound, the signs of toxicity entry in data set [2] (IV 300 μg/Kg dose level) is given as “without any signs of toxicity”; in data set [3] (IV 250 and 300 μg/Kg dose levels) it was “without any signs of toxicity”. Besides, in data set [2] (IV 300 μg/Kg/day, 5 days on/2 days off, 3 weeks), the “antitumour activity compared to control mice” value is listed as “prominent antitumour activity”. The “down-regulation of OCT-4 activity” value with OCT-4 is “at least 30%”. Further, the “down-regulation of SMAD activity” value in the data set with SMAD is “at least 30%”. The “reduction of NF-κB activity” value in the data set with NF-κB (specific value) was around 50%. Moreover, in the data set with NF-κB (top five, at least), the “down-regulation of NF-κB activity” value was “at least 30%”. Also, the “down-regulation of NFAT activity” value in the data set on NFAT is on record as “at least 30%”. For the same compound, the “down-regulation of EGR activity” value with EGR is “at least 30%”. Besides, in the data set on NFκB, the immunohistochemical staining findings entry is recorded as “consistent with NFκB inhibition”. In data set [3] (300 μg/Kg dose level, up to 3 weeks after last dose), the “tumour re-growth after last IV dose” value was “did not re-grow”. Moreover, the “in vivo antitumour activity compared to control mice” value in [3] (IV 250 μg/Kg/day) and in [3] (IV 300 μg/Kg/day) was “prominent in vivo antitumour activity” throughout.
